Experimental findings from PubChem BioAssay (NCI) are described below.

Some test systems named below: NCI-H522 lung; UO-31 renal; NCI-H23 lung; SK-MEL-28 melanoma; IGROV1 ovarian; M14 melanoma; UACC-257 melanoma; OVCAR-4 ovarian; OVCAR-8 ovarian; LOX IMVI melanoma.
Holding throughout (experiment): NCI anticancer screen, dose series, 48 h

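Exposure lasted 48 hours, with cells grown in 96-well plates and compounds tested at five concentrations. GI50 marks 50% less growth. At the TGI there is no net growth.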

As for `O=C(Nc1ccccc1)c1cc2ccccc2c(N=Nc2cccc([N+](=O)[O-])c2)c1O`, the TGI with NCI-H522 lung, in the assay with UO-31 renal, in the assay with NCI-H23 lung, with SK-MEL-28 melanoma, in the assay on IGROV1 ovarian and in the assay with M14 melanoma was more than 100 µM each time. Also, the TGI with UACC-257 melanoma, with OVCAR-4 ovarian and in the assay on OVCAR-8 ovarian was more than 100 µM throughout.

With `C1=N[C@]23C(=N[C@H](N=C2NCc2ccco2)[C@]24N=CNC2=N[C@H]3N=C4NCc2ccco2)N1`, the GI50 with NCI-H522 lung, with UO-31 renal, with NCI-H23 lung, with SK-MEL-28 melanoma, in the assay with IGROV1 ovarian and in the assay on M14 melanoma was more than 100 µM throughout. The GI50 is more than 100 µM in the assay with UACC-257 melanoma, 65 µM in the assay with OVCAR-4 ovarian, more than 100 µM in the assay on LOX IMVI melanoma and more than 100 µM in the assay on OVCAR-8 ovarian. Moreover, the TGI in the assay with NCI-H522 lung, in the assay on UO-31 renal, in the assay on NCI-H23 lung, in the assay with SK-MEL-28 melanoma, in the assay on IGROV1 ovarian and in the assay with M14 melanoma was more than 100 µM each time. Moreover, the TGI in the assay on UACC-257 melanoma, in the assay with OVCAR-4 ovarian, in the assay with LOX IMVI melanoma and with OVCAR-8 ovarian was more than 100 µM each time.

`Cc1c(C)c2c(c(C)c1OC(=O)CCC(=O)[O-])CCC(C)(CCCCCCCCCCC[P+](c1ccccc1)(c1ccccc1)c1ccccc1)O2` (stereo not given): the GI50 with NCI-H522 lung was 0.153 µM; with UO-31 renal, 0.744 µM; in the assay with NCI-H23 lung, 0.159 µM; in the assay on SK-MEL-28 melanoma, 0.241 µM; in the assay on UACC-257 melanoma it was 0.151 µM; with OVCAR-4 ovarian, 0.158 µM. Moreover, the GI50 in the assay on LOX IMVI melanoma was 0.194 µM; in the assay on OVCAR-8 ovarian it was 0.175 µM. Moreover, the TGI was 1.51 µM in the assay on NCI-H522 lung; 1.42 µM in the assay on UO-31 renal; 0.671 µM in the assay with NCI-H23 lung; 0.829 µM in the assay on SK-MEL-28 melanoma; 0.512 µM in the assay on UACC-257 melanoma; 0.891 µM with OVCAR-4 ovarian. Further, the figures for the TGI in the assay with LOX IMVI melanoma and in the assay on OVCAR-8 ovarian were 0.747 µM and 0.974 µM, respectively.

In the case of `O=C([CH-]C(=O)c1ccccc1)c1ccccc1.[C-]#[O+].[C-]#[O+].[Ir]`, the GI50 in the assay with UO-31 renal was 45.2 µM; with NCI-H23 lung, 52.8 µM; in the assay with SK-MEL-28 melanoma, 87 µM; in the assay on IGROV1 ovarian, 88.3 µM; in the assay on M14 melanoma, 54.3 µM; with UACC-257 melanoma, more than 100 µM. The GI50 in the assay on OVCAR-4 ovarian was more than 100 µM; in the assay on LOX IMVI melanoma, 46.5 µM; in the assay on OVCAR-8 ovarian, 45.4 µM. For the same compound, the TGI in the assay with UO-31 renal, with NCI-H23 lung, in the assay with SK-MEL-28 melanoma, in the assay on IGROV1 ovarian, with M14 melanoma and in the assay with UACC-257 melanoma was more than 100 µM throughout. Further, the TGI with OVCAR-4 ovarian, in the assay on LOX IMVI melanoma and in the assay with OVCAR-8 ovarian was more than 100 µM throughout.

Take `C=C1CC[C@@]2(C)[C@@H]([C@@H]1C)[C@H]1CC[C@@H]3[C@@]4(C)CC[C@H](O)C(C)(C)[C@@H]4CC[C@@]3(C)[C@]1(C)C[C@@H]2O`: the TGI in the assay with NCI-H522 lung worked out at 4.52 µM; with UO-31 renal, 5.67 µM; in the assay with NCI-H23 lung it was 5.64 µM; with SK-MEL-28 melanoma, 20.3 µM; with IGROV1 ovarian it was 3.77 µM; in the assay on M14 melanoma it was 32.7 µM. Moreover, the TGI turned out to be 31.3 µM in the assay with UACC-257 melanoma, 6.53 µM in the assay with OVCAR-4 ovarian and 3.47 µM in the assay with LOX IMVI melanoma.

In the case of `CON(C)c1nc(N)c(C#N)c(C#N)c1C#N`, the TGI in the assay on NCI-H522 lung, with UO-31 renal, in the assay with NCI-H23 lung, in the assay on SK-MEL-28 melanoma, with IGROV1 ovarian and in the assay with M14 melanoma was more than 10 µM in each case. Also, the TGI with OVCAR-4 ovarian, in the assay on LOX IMVI melanoma and with OVCAR-8 ovarian was more than 10 µM in each case.

In the case of `C[C@@H]1C[C@H]2OC(=O)[C@@]3(C)CCC[C@@](C)([C@@H]23)[C@@]1(O)CCc1ccoc1`, the TGI in the assay on NCI-H522 lung, in the assay on UO-31 renal, with NCI-H23 lung, with SK-MEL-28 melanoma, with IGROV1 ovarian and in the assay on M14 melanoma was more than 100 µM each time. Moreover, the TGI in the assay on UACC-257 melanoma, in the assay with OVCAR-4 ovarian, in the assay on LOX IMVI melanoma and with OVCAR-8 ovarian was more than 100 µM in each case.

For `COc1cccc(N/C(C)=C2/CCOC2=O)c1`, the TGI in the assay with NCI-H522 lung, in the assay on UO-31 renal, with NCI-H23 lung, in the assay with SK-MEL-28 melanoma, in the assay on IGROV1 ovarian and with M14 melanoma was more than 10 µM in each case. Further, the TGI with OVCAR-4 ovarian, in the assay with LOX IMVI melanoma and in the assay on OVCAR-8 ovarian was more than 10 µM throughout.
